Results as given in paper PMC11233931, “Remodeling tumor‐associated macrophage for anti‐cancer effects by rational design of irreversible inhibition of mitogen‐activated protein kinase‐activated protein kinase 2” (MedComm, 2024).

How the values were obtained:
[1] = Cell viability assay (CCK-8), THP-1; type: cell-based; conditions: THP-1 cells (monocyte), THP-1, human monocyte, read-out: IC50 (μM) mean ± SD, cytotoxicity
Experimental: (§1) In cellular experiments, cells are seeded into either 6-well or 96-well plates and incubated overnight, proceeding with treatments as described in the figure legends or methods section. The cell inoculation numbers are outlined as follows: For assays measuring cell viability, between 3,000 to 5,000 cells are seeded per well in 96-well plates. For other cellular assays, the seeding density ranges from 5×10^5 to 1×10^6 cells per well in 6-well plates.
(§2) Cells was plated into 96-well plates and incubated overnight prior to introduction of varying concentrations of compounds or control solvent. Following a 72-hour exposure period, cell viability was determined using a Cell Counting Kit-8 assay (Life-iLab, China). Dose-response curves were fitted using a four-parameter method facilitated by SoftMax Pro, which was subsequently used for the computation of IC50 values.

[2] = Cell viability assay (CCK-8), CT26; type: cell-based; conditions: mouse, CT26 cells (colorectal carcinoma), CT26, murine colorectal carcinoma, read-out: IC50 (μM) mean ± SD, cytotoxicity
Experimental: as §1, §2

MK3 = biological target: T1, MK3 (Homo sapiens, UniProt Q16644); test: Eurofins kinase selectivity profile, MK3; type: biochemical
T1 construct: purchased Eurofins (Celle Lévescault)
Experimental: Subsequently, to ascertain whether the high potency of compound 11 was specific for MK2, an additional 380 human recombinant protein kinases were screened.
To assess the impact of various compounds on MK2 kinase activity, we utilized the ADP‐Glo Assay Kit (Promega) following the manufacturer's instructions. Luminescence measurements were taken using a SpectraMax Paradigm reader. The inhibition percentage was calculated using the following formula: ((specific signalDMSO control − specific signal inhibitor)/(specific signalDMSO control)) × 100%. The IC50 values were determined employing dose–response curve fitting via Prism (Graph Pad). Additionally, Eurofins company (Celle Lévescault) conducted the analysis on compound 11’s inhibitory activity against 380 other human recombinant kinases at various concentrations.

[3] = tested on: TAMs and CD206+ TAMs in MC38 tumor; test: Flow cytometry of tumor infiltrating TAMs in MC38 tumor model; type: in vivo, mouse; conditions: treated 9 days
Experimental: (§3) FIGURE 5 Inhibition of pro‐tumorigenic M2‐like polarization in macrophages by compound 11. (A–C) RT‐PCR analysis highlights the impact of compound 11 on MRC1 and ARG‐1 mRNA expression in various macrophage cells treated with IL‐4/IL‐13 alone or combined with compound 11 for 12 h or 24 h. (D) CD206 and Arg‐1 expression in bone marrow‐derived macrophages (BMDM) cells via flow cytometry post 48 h treatment of compound 11 and IL‐4/IL‐13. (E) The treatment effects of compound 11 in THP‐1 cells using western blot analysis. Cells were pretreated with compound 11 for 1 h and followed by IL‐4/IL‐13 treatment (30 min). (F) The influence of MK2 siRNA on MRC1 and ARG‐1 mRNA expression in THP‐1 cells by RT‐PCR analysis post‐IL‐4/IL‐13 stimulation (12 h). […] Data are shown as the mean ± SD. ^* p < 0.05; ^*** p < 0.001 versus the vehicle group, determined by unpaired t test. […]
Antibodies targeting specific proteins along with corresponding isotype controls or FMO controls were employed to examine the leukocyte infiltrate: CD11b, CD45, CD206, Arg‐1, and F4/80 (BD, eBioscience and Biolegend). […] Eventually, the gathered data were analyzed using the FlowJo software, with the gating strategies utilized for flow cytometry represented in Figure S5.

p-Hsp27 in THP-1 cells = test: Western blot of p-Hsp27 in IL-4/IL-13 treated THP-1 cells; type: cell-based, human; conditions: 1 h pretreatment, IL-4/IL-13 30 min
From the text: (§4) A previous study has reported that MK2 fostered M2‐like polarization of TAMs, driving a protumor and proangiogenic phenotype which in turn accelerates tumor progression.[21] We thus assessed the influence of compound 11 on macrophage polarization and function. Our experiments used human THP‐1 monocyte induced macrophages, mouse RAW264.7 macrophages, and mouse bone marrow‐derived macrophages (BMDM). These cells were induced into M2‐like macrophages using the classic IL‐4 and IL‐13 stimuli.
as §3, with “analysis.” for “analysis. Cells were pretreated with compound 11 for 1 h and followed by IL‐4/IL‐13 treatment (30 min). (F) The influence of MK2 siRNA on MRC1 and ARG‐1 mRNA expression in THP‐1 cells by RT‐PCR analysis post‐IL‐4/IL‐13 stimulation (12 h).”
After the treatment outlined in the figure legends, cells were lysed using 1× sodium dodecyl sulfate (SDS) solution. […] Protein bands were detected using an enhanced chemiluminescence detection reagent (Thermo Fisher Scientific).

[4] = Cell viability assay (CCK-8), MC38; type: cell-based; conditions: mouse, MC38 cells (colorectal carcinoma), MC38, murine colorectal carcinoma, read-out: IC50 (μM) mean ± SD, cytotoxicity
Experimental: as §1, §2

[5] = tested on: MRC1 and ARG-1 mRNA in THP-1 monocyte induced macrophages; test: RT-PCR of M2 markers in IL-4/IL-13 stimulated THP-1 macrophages; type: cell-based, human; conditions: IL-4/IL-13 20 ng/mL
From the text: as §4
FIGURE 5 Inhibition of pro‐tumorigenic M2‐like polarization in macrophages by compound 11. (A–C) RT‐PCR analysis highlights the impact of compound 11 on MRC1 and ARG‐1 mRNA expression in various macrophage cells treated with IL‐4/IL‐13 alone or combined with compound 11 for 12 h or 24 h. […] Data are shown as the mean ± SD. ^* p < 0.05; ^*** p < 0.001 versus the vehicle group, determined by unpaired t test. […]
Total RNA was extracted from cultured cells using the EZ‐press RNA Purification Kit (EZBioscience). Complementary DNA was synthesized using the ABScript III RT Master Mix for qPCR with gDNA remover (ABclonal Technology) and was quantified with primers listed in Table S5. The relative mRNA expression levels were quantified through qPCR using the SYBR green gene expression assay (ABclonal Technology).

T1 sequence (Q16644 whole entry): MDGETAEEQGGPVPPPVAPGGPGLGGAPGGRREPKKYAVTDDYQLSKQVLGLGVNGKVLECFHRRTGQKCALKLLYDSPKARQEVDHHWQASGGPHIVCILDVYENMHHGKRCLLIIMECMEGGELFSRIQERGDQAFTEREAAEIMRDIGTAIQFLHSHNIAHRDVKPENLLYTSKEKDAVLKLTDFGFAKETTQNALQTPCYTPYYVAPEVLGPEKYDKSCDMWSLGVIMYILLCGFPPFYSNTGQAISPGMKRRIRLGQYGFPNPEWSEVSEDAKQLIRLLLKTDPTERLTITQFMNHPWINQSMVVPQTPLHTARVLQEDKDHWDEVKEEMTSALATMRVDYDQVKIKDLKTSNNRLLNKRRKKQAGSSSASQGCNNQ

In the case of `C=CC(=O)Nc1cc(-c2cc(-c3cc4c([nH]3)CCNC4=O)ccn2)ccc1OC(F)(F)F` [compound 11], the IC50 at 72 h [1] is reported as 34.7 ± 0.4 µM, the IC50 at 72 h [2] is reported as 47.2 ± 2.4 µM and the IC50 (MK3) is reported as > 100 nM. It also gave an inhibition at 0.001 µM (MK3; MAPKAP-K3(h), 1 nM, read-out: Inhibition rate) of -10%, an inhibition at 0.01 µM (MK3; MAPKAP-K3(h), 10 nM, read-out: Inhibition rate) of 1% and an inhibition at 0.1 µM (MK3; MAPKAP-K3(h), 100 nM, read-out: Inhibition rate) of 12%. The “effect on total and M2-like (CD206+) TAM populations in tumor” value [3] was “marked reduction”, the “effect on p-Hsp27” value (p-Hsp27 in THP-1 cells) was “significant inhibition” and the IC50 at 72 h [4] was 48.3 ± 10.5 µM. The “effect on transcriptional level of MRC1 and ARG-1” value [5] was “significantly suppressed”.
